Assay results from patent US20250213555A1, “SUBSTITUTED TETRAHYDROFURAN ANALOGS AS MODULATORS OF SODIUM CHANNELS” (VERTEX PHARMACEUTICALS INCORPORATED, priority 2021, published 2025).
pIC50: −log10 of the molar value.

Molecular target: human Nav 1.8 (Homo sapiens, UniProt Q9Y5Y9)
Experiment: E-VIPR assay detecting and measuring Nav inhibition properties
Type: cell-based
Conditions: HEK cells expressing a truncated form of human Nav 1.8; compound numbers without "*" (not marked as run in the presence of human serum); read-out: measured IC50 value in the E-VIPR Assay
In short: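 Nav inhibition was read by E-VIPR: cells were electrically stimulated while coumarin/oxonol FRET emissions were recorded. Cells were HEK expressing a truncated human Nav 1.8 and co-transduced with KIR2.1, and were assayed in 25% final human serum.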

Chain of human Nav 1.8 (Q9Y5Y9 126-399 limits assumed): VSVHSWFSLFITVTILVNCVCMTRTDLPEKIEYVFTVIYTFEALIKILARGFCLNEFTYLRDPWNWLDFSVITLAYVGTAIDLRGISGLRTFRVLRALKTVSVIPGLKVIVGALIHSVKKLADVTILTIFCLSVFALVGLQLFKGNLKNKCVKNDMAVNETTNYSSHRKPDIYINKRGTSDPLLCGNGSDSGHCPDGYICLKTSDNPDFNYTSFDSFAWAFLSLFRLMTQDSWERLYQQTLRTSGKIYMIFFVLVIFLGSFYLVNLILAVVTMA
Chain of human Nav 1.8 (Q9Y5Y9 660-890 limits assumed): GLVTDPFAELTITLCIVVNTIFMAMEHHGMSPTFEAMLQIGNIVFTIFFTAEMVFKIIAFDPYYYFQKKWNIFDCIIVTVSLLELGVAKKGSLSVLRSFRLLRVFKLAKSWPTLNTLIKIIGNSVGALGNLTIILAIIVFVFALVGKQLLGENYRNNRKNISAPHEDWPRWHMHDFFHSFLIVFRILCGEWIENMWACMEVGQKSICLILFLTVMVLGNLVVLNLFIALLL
Chain of human Nav 1.8 (Q9Y5Y9 1148-1722 limits assumed): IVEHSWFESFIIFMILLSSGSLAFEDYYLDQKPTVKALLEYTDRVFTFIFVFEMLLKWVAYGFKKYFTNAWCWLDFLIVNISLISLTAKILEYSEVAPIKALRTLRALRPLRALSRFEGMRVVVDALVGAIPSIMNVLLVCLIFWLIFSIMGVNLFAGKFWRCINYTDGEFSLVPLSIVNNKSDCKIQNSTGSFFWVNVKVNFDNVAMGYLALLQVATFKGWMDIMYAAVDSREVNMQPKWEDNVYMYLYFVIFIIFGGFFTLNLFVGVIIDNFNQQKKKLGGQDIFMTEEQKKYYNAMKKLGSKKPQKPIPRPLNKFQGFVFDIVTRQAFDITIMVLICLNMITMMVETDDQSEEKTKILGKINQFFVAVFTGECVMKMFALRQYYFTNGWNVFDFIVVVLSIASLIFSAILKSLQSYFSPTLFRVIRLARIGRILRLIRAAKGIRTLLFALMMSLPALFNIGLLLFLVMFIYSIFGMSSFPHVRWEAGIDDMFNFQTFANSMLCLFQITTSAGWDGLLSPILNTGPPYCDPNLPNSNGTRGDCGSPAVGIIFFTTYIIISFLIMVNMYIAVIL

With `COc1c([C@H]2[C@H](C(=O)Nc3ccnc(C(=O)NC[C@@H]4CC(F)(F)CN4)c3)O[C@@](C)(C(F)(F)F)[C@H]2C)ccc(F)c1F` [Compound 226, 4-((2R,3S,4S,5R)-3-(3,4-difluoro-2-methoxyphenyl)-4,5-dimethyl-5-(trifluoromethyl)tetrahydrofuran-2-carboxamido)-N-(((S)-4,4-difluoropyrrolidin-2-yl)methyl)picolinamide] the pIC50 was 6.00 to 7.00.

`COc1c([C@H]2[C@H](C(=O)Nc3ccnc(C(=O)N4C[C@H]5CCNC[C@H]54)c3)O[C@@](C)(C(F)(F)F)[C@H]2C)ccc(F)c1F` [Compound 227, (2R,3S,4S,5R)-N-(2-((1S,6R)-3,8-diazabicyclo[4.2.0]octane-8-carbonyl)pyridin-4-yl)-3-(3,4-difluoro-2-methoxyphenyl)-4,5-dimethyl-5-(trifluoromethyl)tetrahydrofuran-2-carboxamide] was tested, and the pIC50 was > 8.00.

For `COc1c([C@H]2[C@H](C(=O)Nc3ccnc(C(=O)N4CC5(CNC5)C4)c3)O[C@@](C)(C(F)(F)F)[C@H]2C)ccc(F)c1F` [Compound 228, (2R,3S,4S,5R)-N-(2-(2,6-diazaspiro[3.3]heptane-2-carbonyl)pyridin-4-yl)-3-(3,4-difluoro-2-methoxyphenyl)-4,5-dimethyl-5-(trifluoromethyl)tetrahydrofuran-2-carboxamide], the pIC50 was > 8.00.

For `COc1c([C@H]2[C@H](C(=O)Nc3ccnc(C(=O)N(C)[C@@H]4CCNC4)c3)O[C@@](C)(C(F)(F)F)[C@H]2C)ccc(F)c1F` [Compound 229, 4-((2R,3S,4S,5R)-3-(3,4-difluoro-2-methoxyphenyl)-4,5-dimethyl-5-(trifluoromethyl)tetrahydrofuran-2-carboxamido)-N-methyl-N-((R)-pyrrolidin-3-yl)picolinamide], the pIC50 was > 8.00.

In the case of `COc1c([C@H]2[C@H](C(=O)Nc3ccnc(C(=O)N4CC5(CCCN5)C4)c3)O[C@@](C)(C(F)(F)F)[C@H]2C)ccc(F)c1F` [Compound 230, (2R,3S,4S,5R)-N-(2-(2,5-diazaspiro[3.4]octane-2-carbonyl)pyridin-4-yl)-3-(3,4-difluoro-2-methoxyphenyl)-4,5-dimethyl-5-(trifluoromethyl)tetrahydrofuran-2-carboxamide], the pIC50 was > 8.00.

With `CNCCNC(=O)c1cc(NC(=O)[C@@H]2O[C@@](C)(C(F)(F)F)[C@@H](C)[C@H]2c2ccc(F)c(F)c2OC)ccn1` [Compound 231, 4-((2R,3S,4S,5R)-3-(3,4-difluoro-2-methoxyphenyl)-4,5-dimethyl-5-(trifluoromethyl)tetrahydrofuran-2-carboxamido)-N-(2-(methylamino)ethyl)picolinamide] the pIC50 was > 8.00.

In the case of `COc1c([C@H]2[C@H](C(=O)Nc3ccnc(C(=O)N4CCNC[C@@H]4C)c3)O[C@@](C)(C(F)(F)F)[C@H]2C)ccc(F)c1F` [Compound 232, (2R,3S,4S,5R)-3-(3,4-difluoro-2-methoxyphenyl)-4,5-dimethyl-N-(2-((S)-2-methylpiperazine-1-carbonyl)pyridin-4-yl)-5-(trifluoromethyl)tetrahydrofuran-2-carboxamide], the pIC50 was > 8.00.

`COc1c([C@H]2[C@H](C(=O)Nc3ccnc(C(=O)NC[C@]4(C)CCCN4)c3)O[C@@](C)(C(F)(F)F)[C@H]2C)ccc(F)c1F` [Compound 233, 4-((2R,3S,4S,5R)-3-(3,4-difluoro-2-methoxyphenyl)-4,5-dimethyl-5-(trifluoromethyl)tetrahydrofuran-2-carboxamido)-N-(((S)-2-methylpyrrolidin-2-yl)methyl)picolinamide] gave a pIC50 of 7.00 to 8.00.

With `CNCCN(C)C(=O)c1cc(NC(=O)[C@@H]2O[C@@](C)(C(F)(F)F)[C@@H](C)[C@H]2c2ccc(F)c(F)c2OC)ccn1` [Compound 234, 4-((2R,3S,4S,5R)-3-(3,4-difluoro-2-methoxyphenyl)-4,5-dimethyl-5-(trifluoromethyl)tetrahydrofuran-2-carboxamido)-N-methyl-N-(2-(methylamino)ethyl)picolinamide] the pIC50 was > 8.00.

For `COc1c([C@H]2[C@H](C(=O)Nc3ccnc(C(=O)N4CCNC[C@H]4C)c3)O[C@@](C)(C(F)(F)F)[C@H]2C)ccc(F)c1F` [Compound 235, (2R,3S,4S,5R)-3-(3,4-difluoro-2-methoxyphenyl)-4,5-dimethyl-N-(2-((R)-2-methylpiperazine-1-carbonyl)pyridin-4-yl)-5-(trifluoromethyl)tetrahydrofuran-2-carboxamide], the pIC50 was > 8.00.

`COc1c([C@H]2[C@H](C(=O)Nc3ccnc(C(=O)NC4CNC4)c3)O[C@@](C)(C(F)(F)F)[C@H]2C)ccc(F)c1F` [Compound 236, N-(azetidin-3-yl)-4-((2R,3S,4S,5R)-3-(3,4-difluoro-2-methoxyphenyl)-4,5-dimethyl-5-(trifluoromethyl)tetrahydrofuran-2-carboxamido)picolinamide] gave a pIC50 of 7.00 to 8.00.

`COc1c([C@H]2[C@H](C(=O)Nc3ccnc(C(=O)N4C5CNCC4C5)c3)O[C@@](C)(C(F)(F)F)[C@H]2C)ccc(F)c1F` [Compound 237, (2R,3S,4S,5R)-N-(2-(3,6-diazabicyclo[3.1.1]heptane-6-carbonyl)pyridin-4-yl)-3-(3,4-difluoro-2-methoxyphenyl)-4,5-dimethyl-5-(trifluoromethyl)tetrahydrofuran-2-carboxamide] gave a pIC50 of 7.00 to 8.00.

For `COc1c([C@H]2[C@H](C(=O)Nc3ccnc(C(=O)N[C@H]4CCNC4)c3)O[C@@](C)(C(F)(F)F)[C@H]2C)ccc(F)c1F` [Compound 238, 4-((2R,3S,4S,5R)-3-(3,4-difluoro-2-methoxyphenyl)-4,5-dimethyl-5-(trifluoromethyl)tetrahydrofuran-2-carboxamido)-N-((S)-pyrrolidin-3-yl)picolinamide], the pIC50 was > 8.00.

`COc1c([C@H]2[C@H](C(=O)Nc3ccnc(C(=O)N4CC5CC(C4)N5)c3)O[C@@](C)(C(F)(F)F)[C@H]2C)ccc(F)c1F` [Compound 239, (2R,3S,4S,5R)-N-(2-(3,6-diazabicyclo[3.1.1]heptane-3-carbonyl)pyridin-4-yl)-3-(3,4-difluoro-2-methoxyphenyl)-4,5-dimethyl-5-(trifluoromethyl)tetrahydrofuran-2-carboxamide] was tested, and the pIC50 was > 8.00.

For `COc1c([C@H]2[C@H](C(=O)Nc3ccnc(C(=O)N4C[C@@H]5C[C@H]4CN5)c3)O[C@@](C)(C(F)(F)F)[C@H]2C)ccc(F)c1F` [Compound 240, (2R,3S,4S,5R)-N-(2-((1S,4S)-2,5-diazabicyclo[2.2.1]heptane-2-carbonyl)pyridin-4-yl)-3-(3,4-difluoro-2-methoxyphenyl)-4,5-dimethyl-5-(trifluoromethyl)tetrahydrofuran-2-carboxamide], the pIC50 was > 8.00.

In the case of `COc1c([C@H]2[C@H](C(=O)Nc3ccnc(C(=O)N4CCNC(C)(C)C4)c3)O[C@@](C)(C(F)(F)F)[C@H]2C)ccc(F)c1F` [Compound 241, (2R,3S,4S,5R)-3-(3,4-difluoro-2-methoxyphenyl)-N-(2-(3,3-dimethylpiperazine-1-carbonyl)pyridin-4-yl)-4,5-dimethyl-5-(trifluoromethyl)tetrahydrofuran-2-carboxamide], the pIC50 was > 8.00.

In the case of `COc1c([C@H]2[C@H](C(=O)Nc3ccnc(C(=O)N[C@H]4CNC[C@@H]4OC)c3)O[C@@](C)(C(F)(F)F)[C@H]2C)ccc(F)c1F` [Compound 242, 4-((2R,3S,4S,5R)-3-(3,4-difluoro-2-methoxyphenyl)-4,5-dimethyl-5-(trifluoromethyl)tetrahydrofuran-2-carboxamido)-N-((3S,4S)-4-methoxypyrrolidin-3-yl)picolinamide], the pIC50 was 7.00 to 8.00.

`COc1c([C@H]2[C@H](C(=O)Nc3ccnc(C(=O)N4CCO[C@H]5CNC[C@H]54)c3)O[C@@](C)(C(F)(F)F)[C@H]2C)ccc(F)c1F` [Compound 243, (2R,3S,4S,5R)-3-(3,4-difluoro-2-methoxyphenyl)-4,5-dimethyl-N-(2-((4aR,7aS)-octahydropyrrolo[3,4-b][1,4]oxazine-4-carbonyl)pyridin-4-yl)-5-(trifluoromethyl)tetrahydrofuran-2-carboxamide] was tested, and the pIC50 was > 8.00.

For `COc1c([C@H]2[C@H](C(=O)Nc3ccnc(C(=O)N4C[C@H]5CC[C@@H](C4)NC5)c3)O[C@@](C)(C(F)(F)F)[C@H]2C)ccc(F)c1F` [Compound 244, (2R,3S,4S,5R)-N-(2-((1S,5S)-3,6-diazabicyclo[3.2.2]nonane-3-carbonyl)pyridin-4-yl)-3-(3,4-difluoro-2-methoxyphenyl)-4,5-dimethyl-5-(trifluoromethyl)tetrahydrofuran-2-carboxamide], the pIC50 was > 8.00.

For `COc1c([C@H]2[C@H](C(=O)Nc3ccnc(C(=O)N4CC5COCC(C4)N5)c3)O[C@@](C)(C(F)(F)F)[C@H]2C)ccc(F)c1F` [Compound 245, (2R,3S,4S,5R)-N-(2-(3-oxa-7,9-diazabicyclo[3.3.1]nonane-7-carbonyl)pyridin-4-yl)-3-(3,4-difluoro-2-methoxyphenyl)-4,5-dimethyl-5-(trifluoromethyl)tetrahydrofuran-2-carboxamide], the pIC50 was > 8.00.

With `COc1c([C@H]2[C@H](C(=O)Nc3ccnc(C(=O)N[C@H]4CNCC[C@H]4OC)c3)O[C@@](C)(C(F)(F)F)[C@H]2C)ccc(F)c1F` [Compound 246, 4-((2R,3S,4S,5R)-3-(3,4-difluoro-2-methoxyphenyl)-4,5-dimethyl-5-(trifluoromethyl)tetrahydrofuran-2-carboxamido)-N-((3S,4R)-4-methoxypiperidin-3-yl)picolinamide] the pIC50 was 6.00 to 7.00.

For `COc1c([C@H]2[C@H](C(=O)Nc3ccnc(C(=O)N(C)[C@H]4CNC[C@@H]4OC)c3)O[C@@](C)(C(F)(F)F)[C@H]2C)ccc(F)c1F` [Compound 247, 4-((2R,3S,4S,5R)-3-(3,4-difluoro-2-methoxyphenyl)-4,5-dimethyl-5-(trifluoromethyl)tetrahydrofuran-2-carboxamido)-N-((3S,4S)-4-methoxypyrrolidin-3-yl)-N-methylpicolinamide], the pIC50 was > 8.00.

With `COC[C@H]1CN(C(=O)c2cc(NC(=O)[C@@H]3O[C@@](C)(C(F)(F)F)[C@@H](C)[C@H]3c3ccc(F)c(F)c3OC)ccn2)CCN1` [Compound 248, (2R,3S,4S,5R)-3-(3,4-difluoro-2-methoxyphenyl)-N-(2-((R)-3-(methoxymethyl)piperazine-1-carbonyl)pyridin-4-yl)-4,5-dimethyl-5-(trifluoromethyl)tetrahydrofuran-2-carboxamide] the pIC50 was > 8.00.
